# Assay results reported in US9057727B2, “Screening methods using G-protein coupled receptors and related compositions” (The General Hospital Corporation, priority 2007, dated 2015).
# Peptide text beside a SMILES is read from it.
# Legend:
# human PTH receptor = target: T1, human PTH receptor (Homo sapiens, UniProt Q03431); assay: cAMP in HRKRK-B7 cells EC50 (nM)
# T1 construct: expressed in transfected cells
# Source text: Table printed on a drawing sheet, Figure 25
# Head of the field: cAMP in HRKRK-B7 cells EC50 (nM)
# First copying reader's note: The column head prints the cell line as HRKRK-B7 while the title prints HKRK-B7.
# [1] = target: T2, hPTH1R (R0 form of the human PTH receptor) (Homo sapiens, UniProt Q03431); assay: R0 memb: hPTH1R*PTH( 1-34)+GTPgS
# T2 construct: expressed in transfected cells; host or cells: COS-7, transient (Fugene-6)
# [2] = target: hPTH1R (RG form of the human PTH receptor); assay: RG memb: hPTH1R+dnGS *M-PTH(1-15)
# [3] = Calcemic action in normal rats (blood ionized calcium); type: in vivo; conditions: normal and TPTX rats
# Description: Binding to the rat PTHR was also measured in vitro.
# Concentration of peptides in stock solution were adjusted by dilution with 25 mmol/L phosphate-citrate buffer/100 mmol/L NaCl/0.05% Tween 80 (pH. 5.0) (PC-buffer). All peptides were allowed to stand on ice immediately before administration.
# Female SD-IGS rat at 8 weeks of age (Charles River Japan, Inc.) were measured for their body weight. Blood was collected by tail vein into heparinized capillary tubes and measured for baseline levels of blood ionized calcium and pH using Ca^++/pH analyzer (Model 634/Bayer Medical Ltd.) to give the corrected level of ionized calcium at pH 7.4 for each sample. Rats received intravenous administration of each peptides at a dose of 1 ml/kg. Peptides were administered to groups of 6 rats each respectively. At 1, 2, 4, or 6 hours after administration, blood was collected by tail vein to monitor the time course of corrected blood ionized calcium levels. The time course of changes in corrected ionized calcium levels, compared to vehicle, and are expressed as means+/−standard error.
# [4] = target: T3, ROS 17/2.8 cells (endogenous rat PTHR) (Rattus norvegicus, UniProt P25961); assay: Acute cAMP response in ROS 17/2.8 rat osteoblastic cells; type: cell-based; conditions: 10^−7 M, hPTH(1-28) 10^−6 M, basal 3.7±0.4
# T3 construct: the rat osteoblastic cell line ROS17/2.8, which endogenously expresses the rat PTHR; endogenous in cells; host or cells: ROS 17/2.8 rat osteosarcoma cells (membranes or intact cells)
# T3 sequence (P25961 27-591): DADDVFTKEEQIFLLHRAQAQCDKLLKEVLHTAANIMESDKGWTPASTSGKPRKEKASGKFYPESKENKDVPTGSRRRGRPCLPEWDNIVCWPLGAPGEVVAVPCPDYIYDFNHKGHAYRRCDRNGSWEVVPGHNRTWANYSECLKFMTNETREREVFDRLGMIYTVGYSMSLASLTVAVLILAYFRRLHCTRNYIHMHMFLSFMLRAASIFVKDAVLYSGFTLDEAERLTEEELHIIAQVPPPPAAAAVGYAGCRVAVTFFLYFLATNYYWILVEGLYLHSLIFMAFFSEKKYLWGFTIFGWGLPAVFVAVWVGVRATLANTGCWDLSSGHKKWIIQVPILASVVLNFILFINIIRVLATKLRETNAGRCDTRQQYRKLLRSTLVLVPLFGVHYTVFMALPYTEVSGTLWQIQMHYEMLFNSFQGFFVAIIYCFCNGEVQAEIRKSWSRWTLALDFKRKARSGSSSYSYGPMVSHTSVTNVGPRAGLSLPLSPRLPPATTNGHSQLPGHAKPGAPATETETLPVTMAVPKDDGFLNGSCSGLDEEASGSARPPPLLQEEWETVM
# [5] = Plasma cAMP in mice after subcutaneous injection; type: in vivo
# Description: FIGS. 9A-9D are graphs showing in vivo plasma cAMP levels in mice treated with PTH analogs. Wild-type mice were injected subcutaneously with vehicle (0.9% NaCl/0.05% Tween-20), or vehicle containing a PTH peptide at a dose-level of 10 to 1,000 nmol of peptide per kg of body weight, and at indicated times after injection, blood was withdrawn from the tail vein, and the amount of cAMP in the resulting plasma was quantified by radioimmuno assay. Each curve corresponds to a peptide at a defined concentration, as indicated in the graph keys. The plasma cAMP concentrations are plotted as picomole per μl plasma.
# (§1) Wild-type mice were injected subcutaneously with vehicle (0.9% NaCl/0.05% Tween-20), or vehicle containing a PTH peptide so as to achieve a concentration ranging from 10 to 1000 nmol/kg of body weight. At the indicated times after injection, blood was withdrawn from the tail vein, and the amount of cAMP in the resulting plasma was quantified by radioimmuno assay (FIGS. 9A-9D).
# as §1, with “at” for “so as to achieve”, “dose level of” for “concentration ranging from”, “At” for “At the”, “assay. Ionized calcium in serum was measured as above and phosphate was measured by a U.V. spectroscopic kit assay.” for “assay (FIGS. 9A-9D).”
# T1 sequence (Q03431 27-593 limits assumed): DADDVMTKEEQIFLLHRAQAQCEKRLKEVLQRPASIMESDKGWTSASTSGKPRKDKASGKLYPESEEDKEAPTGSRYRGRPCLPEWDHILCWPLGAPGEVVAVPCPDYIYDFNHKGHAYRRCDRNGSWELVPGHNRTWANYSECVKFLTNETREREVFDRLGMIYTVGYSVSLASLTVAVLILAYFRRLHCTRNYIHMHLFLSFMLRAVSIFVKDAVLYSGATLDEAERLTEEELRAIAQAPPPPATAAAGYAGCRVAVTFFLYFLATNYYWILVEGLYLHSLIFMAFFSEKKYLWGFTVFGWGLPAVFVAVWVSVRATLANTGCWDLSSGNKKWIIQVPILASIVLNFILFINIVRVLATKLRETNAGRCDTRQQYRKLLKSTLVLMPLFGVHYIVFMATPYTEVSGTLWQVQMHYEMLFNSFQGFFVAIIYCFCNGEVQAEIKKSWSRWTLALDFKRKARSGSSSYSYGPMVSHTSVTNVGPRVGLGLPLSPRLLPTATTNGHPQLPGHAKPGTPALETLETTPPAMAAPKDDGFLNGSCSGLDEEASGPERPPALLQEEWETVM
# T2 sequence (Q03431 27-593 limits assumed): as above
Compound,EC50 (human PTH receptor) [nM],IC50 [1] [nM],IC50 [2] [nM],"calcemic action compared with control peptides, in words [3]","maximum cAMP response (ligand with IBMX 10 minutes, no wash-out) [4] [pmole/well]",dose producing comparable increase in plasma cAMP [5]
CC[C@H](C)[C@H](NC(=O)[C@H](CCC(=O)O)NC(=O)[C@H](C)NC(=O)[C@@H](NC(=O)[C@H](Cc1c[nH]cn1)NC(=O)[C@@H](NC(=O)[C@H](CCC(=O)O)NC(=O)[C@H](C)NC(=O)[C@@H](NC(=O)[C@H](CC(C)C)NC(=O)[C@H](Cc1c[nH]cn1)NC(=O)[C@H](Cc1c[nH]cn1)NC(=O)[C@H](CC(C)C)NC(=O)[C@H](Cc1ccccc1)NC(=O)[C@H](CCC(=O)O)NC(=O)[C@@H](NC(=O)[C@H](CCCNC(=N)N)NC(=O)[C@H](CCC(=O)O)NC(=O)[C@H](CCSC)NC(=O)[C@H](CO)NC(=O)[C@H](CC(N)=O)NC(=O)[C@H](CC(C)C)NC(=O)[C@H](Cc1c[nH]cn1)NC(=O)[C@H](CCCCN)NC(=O)CNC(=O)[C@H](CC(C)C)NC(=O)[C@H](CC(N)=O)NC(=O)[C@H](Cc1c[nH]cn1)NC(=O)[C@H](CCSC)NC(=O)[C@H](CC(C)C)NC(=O)[C@H](CCC(N)=O)NC(=O)[C@@H](NC(=O)[C@H](CCC(=O)O)NC(=O)[C@H](CO)NC(=O)[C@@H](NC(=O)[C@@H](N)CO)C(C)C)[C@@H](C)CC)C(C)C)[C@@H](C)CC)[C@@H](C)CC)[C@@H](C)O)C(=O)O [PTH(1-22)/PTHrP(23-36)] (H-SVSEIQLMHNLGKHLNSMERVEFLHHLIAEIHTAEI-OH),0.89,16.8,0.22,weaker calcemic actions than did either PTH(1-34) or PTHrP(1-36) control peptides,–,–
"CC[C@H](C)[C@H](NC(=O)[C@H](CCC(=O)O)NC(=O)[C@H](C)NC(=O)[C@@H](NC(=O)[C@H](Cc1c[nH]cn1)NC(=O)[C@@H](NC(=O)[C@H](CCC(=O)O)NC(=O)[C@H](C)NC(=O)[C@@H](NC(=O)[C@H](CC(C)C)NC(=O)[C@H](CCCCN)NC(=O)[C@H](CCCNC(=N)N)NC(=O)[C@H](CC(C)C)NC(=O)[C@H](Cc1c[nH]c2ccccc12)NC(=O)[C@H](CCC(=O)O)NC(=O)[C@@H](NC(=O)[C@H](CCCNC(=N)N)NC(=O)[C@H](CCC(=O)O)NC(=O)[C@H](CCSC)NC(=O)[C@H](CO)NC(=O)[C@H](CC(N)=O)NC(=O)[C@H](CC(C)C)NC(=O)[C@H](Cc1c[nH]cn1)NC(=O)[C@H](CCCCN)NC(=O)CNC(=O)[C@H](CC(C)C)NC(=O)[C@H](CC(N)=O)NC(=O)[C@H](Cc1c[nH]cn1)NC(=O)[C@H](CCSC)NC(=O)[C@H](CC(C)C)NC(=O)[C@H](CCC(N)=O)NC(=O)[C@@H](NC(=O)[C@H](CCC(=O)O)NC(=O)[C@H](CO)NC(=O)[C@@H](NC(=O)[C@@H](N)CO)C(C)C)[C@@H](C)CC)C(C)C)[C@@H](C)CC)[C@@H](C)CC)[C@@H](C)O)C(=O)O [PTH(1-26)/PTHrP(27-36), hPTH(1-26)/PTHrP(27-36)] (H-SVSEIQLMHNLGKHLNSMERVEWLRKLIAEIHTAEI-OH)",1.07,7.9,0.31,weaker calcemic actions than did either PTH(1-34) or PTHrP(1-36) control peptides,–,–
CC[C@H](C)[C@H](NC(=O)[C@H](CCC(=O)O)NC(=O)[C@H](CO)NC(=O)[C@@H](NC(=O)[C@@H](N)CO)C(C)C)C(=O)N[C@@H](CCC(N)=O)C(=O)N[C@@H](CC(C)C)C(=O)N[C@@H](CCSC)C(=O)N[C@@H](Cc1c[nH]cn1)C(=O)N[C@@H](CC(N)=O)C(=O)N[C@@H](CC(C)C)C(=O)NCC(=O)N[C@@H](CCCCN)C(=O)N[C@@H](Cc1c[nH]cn1)C(=O)N[C@@H](CC(C)C)C(=O)N[C@@H](CC(N)=O)C(=O)N[C@@H](CO)C(=O)N[C@@H](CCSC)C(=O)N[C@@H](CCC(=O)O)C(=O)N[C@@H](CCCNC(=N)N)C(=O)N[C@H](C(=O)N[C@@H](CCC(=O)O)C(=O)N[C@@H](Cc1c[nH]c2ccccc12)C(=O)N[C@@H](CC(C)C)C(=O)N[C@@H](CCCNC(=N)N)C(=O)N[C@@H](CCCCN)C(=O)N[C@@H](CCCCN)C(=O)N[C@@H](CC(C)C)C(N)=O)C(C)C [hPTH(1-28)NH2] (H-SVSEIQLMHNLGKHLNSMERVEWLRKKL-NH2; N-terminus assumed),–,–,–,–,68±3,"1,000 nmol/kg"
CC[C@H](C)[C@H](NC(=O)[C@H](CCC(=O)O)NC(=O)[C@H](CO)NC(=O)[C@@H](NC(=O)[C@@H](N)CO)C(C)C)C(=O)N[C@@H](CCC(N)=O)C(=O)N[C@@H](CC(C)C)C(=O)N[C@@H](CCSC)C(=O)N[C@@H](Cc1c[nH]cn1)C(=O)N[C@@H](CC(N)=O)C(=O)N[C@@H](CC(C)C)C(=O)NCC(=O)N[C@@H](CCCCN)C(=O)N[C@@H](Cc1c[nH]cn1)C(=O)N[C@@H](CC(C)C)C(=O)N[C@@H](CC(N)=O)C(=O)N[C@@H](CO)C(=O)N[C@@H](CCSC)C(=O)N[C@@H](CCC(=O)O)C(=O)N[C@@H](CCCNC(=N)N)C(=O)N[C@H](C(=O)N[C@@H](CCC(=O)O)C(=O)N[C@@H](Cc1c[nH]c2ccccc12)C(=O)N[C@@H](CC(C)C)C(=O)N[C@@H](CCCNC(=N)N)C(=O)N[C@@H](CCCCN)C(=O)N[C@@H](CCCCN)C(=O)N[C@@H](CC(C)C)C(=O)N[C@@H](CCC(N)=O)C(=O)N[C@@H](CC(=O)O)C(=O)N[C@H](C(=O)N[C@@H](Cc1c[nH]cn1)C(=O)N[C@@H](CC(N)=O)C(=O)N[C@@H](Cc1ccccc1)C(N)=O)C(C)C)C(C)C [hPTH(1-34)NH2],–,–,–,–,67±6,50 nmol/kg
